Data reported in patent US12024510B2, “Pyrazolopyridine-diamides, their use as insecticide and processes for preparing the same” (PI INDUSTRIES LTD., priority 2017, dated 2024).

Legend:
Assay type in all cases: in vivo
[1] = test system: Spodoptera litura; assay: Spodoptera litura diet incorporation method; conditions: third instar larvae, dead and moribund combined, 96 h after release
Procedure: Test Solutions were Prepared According to the Procedure Described Herein Below (500 PPM):
• 1. Eppendorf Vortex mixer (ThermoMixer C) and 1.5 mL Eppendorf tubes • 2. Zirconia (Zirconium-Yttrium) beads having diameter of 0.8 to 1.0 mm • 3. Microscope • 4. Beaker 100 mL • 5. Micro-pipette Reagents: • 1. Surfactant Solution • 2. De-mineralized (DM) Water • 1. Weigh 10 mg of the compound of the present invention to be tested in an Eppendorf Tube. • 2. Add 200 mg of the Surfactant Solution into the tube. • 3. Add 600 mg of Zirconia beads into the above mixture. • 4. Fix the tube in Eppendorf Vortex mixer and start vortexing at 2000 rpm. • 5. Mix on Vortex mixer for 30 minutes. After 30 minutes, observe the sample over a microscope at 400× resolution. • 6. If the Maximum particle size is more than 5 μm or average particle size is more than 2 μm or the particle size distribution is uneven, continue vortexing for another 30 minutes and again check the particle size using the microscope. Continue till the average particle size is below 2 microns. • 7. When the required particle size is achieved, add 1.0 mL DM water into the tube, close the cap, shake the tube thoroughly and transfer the contents, along with the beads, into a beaker. • 8. To rinse the tube, add another 1.0 mL of DM water into the tube, close the cap, shake well and transfer this into the same beaker. • 9. Repeat Step no. 8 one more time so that the tube is rinsed well and the compound of the present invention to be tested is transferred to the beaker. • 10. Add 16.8 mL of DM water into the beaker and stir well. • 11. The homogeneous dispersion can then be decanted into a glass vial, immediately, to separate the Zirconia beads. • 12. Immediately use this sample for biological testing. • 13. Further dilutions can be prepared by taking appropriate quantity of the aliquot of Step 10, immediately after stirring, and diluting as per requirement. The sample solution must be well mixed just before biological testing.
Diet incorporation method was used, in which semi-synthetic diet was incorporated into the test solution when the temperature is approximately 50° C. in the bioassay containers and stirred thoroughly for properly mixing and then was allowed to cool for 30 min. The solidified diet was cut into equal pieces, and then each piece was transferred in one cell in Bio-assay trays. A single third instar starved larva was released into each of these cells of bioassay trays and the tray was covered with the lid. The bio-assay trays were kept under laboratory conditions at a temperature of 25° C. and Relative Humidity of 70%. Observations on dead, moribund and live larvae were recorded at 96 h after the release of larvae. Percent mortality was calculated by combining dead and moribund larvae. The following compound numbers

[2] = test system: Helicoverpa armigera; assay: Helicoverpa armigera diet incorporation method; conditions: third instar larvae, dead and moribund combined, 96 h after release
Method in brief: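 Third-instar larvae, starved, were placed singly on diet pieces containing test dispersion (bead-milled in surfactant, particles under 2 μm, 500 ppm stock then diluted). Trays kept at 25° C. and 70% RH; mortality counted at 96 h, moribund larvae counted with dead.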

[3] = test system: Plutella xylostella; assay: whole plant or invertebrate; conditions: foliar, cabbage leaf dip, second instar larvae, dead and moribund combined, 72 h after release
Method in brief: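 Leaf-dip bioassay: second-instar larvae, singly, fed on cabbage leaves dipped 10 s in test dispersion (bead-milled, diluted with 0.01% Triton-X to test concentration) and dried 20 min. Held at 25 °C, 70% RH; % mortality counts dead and moribund at 72 h.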

Structure (SMILES)	mortality at 300 ppm [1] [%]	mortality at 300 ppm [2] [%]	mortality at 300 ppm [3] [%]
CNC(=O)c1c(NC(=O)c2cc(Br)nn2-c2ncccc2Cl)c(C)cc2ccnn12 [Compound 1, 6-(3-bromo-1-(3-chloropyridin-2-yl)-1H-pyrazole-5-carboxamido)-N,5-dimethylpyrazolo[1,5-a]pyridine-7-carboxamide]	> 70	> 70	> 70
CCNC(=O)c1c(NC(=O)c2cc(Br)nn2-c2ncccc2Cl)c(C)cc2ccnn12 [Compound 2, 6-(3-bromo-1-(3-chloropyridin-2-yl)-1H-pyrazole-5-carboxamido)-N-ethyl-5-methylpyrazolo[1,5-a]pyridine-7-carboxamide]	> 70	> 70	> 70
Cc1cc2ccnn2c(C(=O)NCC2CC2)c1NC(=O)c1cc(Br)nn1-c1ncccc1Cl [Compound 3, 6-(3-bromo-1-(3-chloropyridin-2-yl)-1H-pyrazole-5-carboxamido)-N-(cyclopropylmethyl)-5-methylpyrazolo[1,5-a]pyridine-7-carboxamide]	> 70	> 70	> 70
Cc1cc2ccnn2c(C(=O)NC(C)C)c1NC(=O)c1cc(Br)nn1-c1ncccc1Cl [Compound 4, 6-(3-bromo-1-(3-chloropyridin-2-yl)-1H-pyrazole-5-carboxamido)-N-isopropyl-5-methylpyrazolo[1,5-a]pyridine-7-carboxamide]	> 70	> 70	> 70
Cc1cc2ccnn2c(C(=O)NC2CC2)c1NC(=O)c1cc(Br)nn1-c1ncccc1Cl [Compound 5, 6-(3-bromo-1-(3-chloropyridin-2-yl)-1H-pyrazole-5-carboxamido)-N-cyclopropyl-5-methylpyrazolo[1,5-a]pyridine-7-carboxamide]	> 70	> 70	> 70
C=CCNC(=O)c1c(NC(=O)c2cc(Br)nn2-c2ncccc2Cl)c(C)cc2ccnn12 [Compound 6, N-allyl-6-(3-bromo-1-(3-chloropyridin-2-yl)-1H-pyrazole-5-carboxamido)-5-methylpyrazolo[1,5-a]pyridine-7-carboxamide]	> 70	> 70	> 70
COCCNC(=O)c1c(NC(=O)c2cc(Br)nn2-c2ncccc2Cl)c(C)cc2ccnn12 [Compound 7, 6-(3-bromo-1-(3-chloropyridin-2-yl)-1H-pyrazole-5-carboxamido)-N-(2-methoxyethyl)-5-methylpyrazolo[1,5-a]pyridine-7-carboxamide]	> 70	> 70	> 70
Cc1cc2ccnn2c(C(=O)NC(C)(C)C)c1NC(=O)c1cc(Br)nn1-c1ncccc1Cl [Compound 8, 6-(3-bromo-1-(3-chloropyridin-2-yl)-1H-pyrazole-5-carboxamido)-N-(tert-butyl)-5-methylpyrazolo[1,5-a]pyridine-7-carboxamide]	> 70	> 70	> 70
CNC(=O)c1c(NC(=O)c2cc(OCC(F)(F)F)nn2-c2ncccc2Cl)c(C)cc2ccnn12 [Compound 9, 6-(1-(3-chloropyridin-2-yl)-3-(2,2,2-trifluoroethoxy)-1H-pyrazole-5-carboxamido)-N,5-dimethylpyrazolo[1,5-a]pyridine-7-carboxamide]	> 70	> 70	> 70
CCNC(=O)c1c(NC(=O)c2cc(OCC(F)(F)F)nn2-c2ncccc2Cl)c(C)cc2ccnn12 [Compound 10, 6-(1-(3-chloropyridin-2-yl)-3-(2,2,2-trifluoroethoxy)-1H-pyrazole-5-carboxamido)-N-ethyl-5-methylpyrazolo[1,5-a]pyridine-7-carboxamide]	> 70	> 70	> 70
Cc1cc2ccnn2c(C(=O)NC(C)C)c1NC(=O)c1cc(OCC(F)(F)F)nn1-c1ncccc1Cl [Compound 12, 6-(1-(3-chloropyridin-2-yl)-3-(2,2,2-trifluoroethoxy)-1H-pyrazole-5-carboxamido)-N-isopropyl-5-methylpyrazolo[1,5-a]pyridine-7-carboxamide]	> 70	> 70	> 70
Cc1cc2ccnn2c(C(=O)NC2CC2)c1NC(=O)c1cc(OCC(F)(F)F)nn1-c1ncccc1Cl [Compound 13, 6-(1-(3-chloropyridin-2-yl)-3-(2,2,2-trifluoroethoxy)-1H-pyrazole-5-carboxamido)-N-cyclopropyl-5-methylpyrazolo[1,5-a]pyridine-7-carboxamide]	> 70	> 70	> 70
Cc1cc2ccnn2c(C(=O)NCC2CC2)c1NC(=O)c1cc(OCC(F)(F)F)nn1-c1ncccc1Cl [Compound 14, 6-(1-(3-chloropyridin-2-yl)-3-(2,2,2-trifluoroethoxy)-1H-pyrazole-5-carboxamido)-N-(cyclopropylmethyl)-5-methylpyrazolo[1,5-a]pyridine-7-carboxamide]	> 70	> 70	> 70
Cc1cc2ccnn2c(C(=O)NCC#N)c1NC(=O)c1cc(OCC(F)(F)F)nn1-c1ncccc1Cl [Compound 15, 6-(1-(3-chloropyridin-2-yl)-3-(2,2,2-trifluoroethoxy)-1H-pyrazole-5-carboxamido)-N-(cyanomethyl)-5-methylpyrazolo[1,5-a]pyridine-7-carboxamide]	> 70	> 70	> 70
CC(C)NC(=O)c1c(NC(=O)c2cc(C(F)(F)F)nn2-c2ncccc2Cl)c(Br)cc2ccnn12 [Compound 107, 5-bromo-6-(1-(3-chloropyridin-2-yl)-3-(trifluoromethyl)-1H-pyrazole-5-carboxamido)-N-isopropylpyrazolo[1,5-a]pyridine-7-carboxamide]	> 70	> 70	–
Cc1cc2ccnn2c(C(=O)NC(C)C2CC2)c1NC(=O)c1cc(OCC(F)(F)F)nn1-c1ncccc1Cl (stereo not drawn) [Compound 121, 6-(1-(3-chloropyridin-2-yl)-3-(2,2,2-trifluoroethoxy)-1H-pyrazole-5-carboxamido)-N-(1-cyclopropylethyl)-5-methylpyrazolo[1,5-a]pyridine-7-carboxamide]	> 70	> 70	–
COc1cc(C(=O)Nc2c(Cl)cc3ccnn3c2C(=O)NC(C)(C)C)n(-c2ncccc2Cl)n1 [Compound 136, N-(tert-butyl)-5-chloro-6-(1-(3-chloropyridin-2-yl)-3-methoxy-1H-pyrazole-5-carboxamido)pyrazolo[1,5-a]pyridine-7-carboxamide]	> 70	> 70	–
Cc1cc2ccnn2c(C(=O)NC(C)C2CC2)c1NC(=O)c1cc(OC2CSC2)nn1-c1ncccc1Cl (stereo not drawn) [Compound 146, 6-(1-(3-chloropyridin-2-yl)-3-(thietan-3-yloxy)-1H-pyrazole-5-carboxamido)-N-(1-cyclopropylethyl)-5-methylpyrazolo[1,5-a]pyridine-7-carboxamide]	> 70	> 70	–
Cc1cc2ccnn2c(C(=O)NC2CC2)c1NC(=O)c1cc(Cn2nnc(C(F)(F)F)n2)nn1-c1ncccc1Cl [Compound 168, 6-(1-(3-chloropyridin-2-yl)-3-((5-(trifluoromethyl)-2H-tetrazol-2-yl)methyl)-1H-pyrazole-5-carboxamido)-N-cyclopropyl-5-methylpyrazolo[1,5-a]pyridine-7-carboxamide]	> 70	> 70	–
Cc1cc2ccnn2c(C(=O)NC(C)C2CC2)c1NC(=O)c1cc(Cn2nnc(C(F)(F)F)n2)nn1-c1ncccc1Cl (stereo not drawn) [Compound 169, 6-(1-(3-chloropyridin-2-yl)-3-((5-(trifluoromethyl)-2H-tetrazol-2-yl)methyl)-1H-pyrazole-5-carboxamido)-N-(1-cyclopropylethyl)-5-methylpyrazolo[1,5-a]pyridine-7-carboxamide]	> 70	> 70	–
